Measured values from patent US20180186769A1, “6-AMINO-5-FLUORO-5-(FLUOROMETHYL)-2,3,4,5-TETRAHYDROPYRIDIN-2-YL-PHENYL-5-(METHOXY-D3)-PYRAZINE-2-CARBOXAMIDES AND FLUORINATED DERIVATIVES THEREOF AS BACE1 INHIBITORS” (H. Lundbeck A/S, priority 2016, published 2018).

Key:
[1] = system: P-gp (MDR1); test: MDCK-MDR1 assay (permeability, efflux ratio); format: in vitro ADME; details: dog, Papp BA/Papp AB
Method: The permeability of the test compounds was assessed in MDCK-MDR1 cells that were cultured to confluency (4-6 days) in a 96 transwell plate. Test compounds were diluted with the transport buffer (HBSS+1% BSA) to a concentration of 0.5 μM and applied to the apical or basolateral side of the cell monolayer. Permeation of the test compounds from A to B direction or B to A direction was determined in triplicate over a 60-minute incubation time at 37° C. and 5% CO2 with a relative humidity of 95%. Test compounds were quantified by LC-MS/MS analysis based on the peaks area ratios of analyte/IS in both the receiver and donor wells of the transwell plate.
The apparent permeability coefficient Papp (cm/s) was calculated using the equation: […]
Where dCr/dt is the cumulative concentration of compound in the receiver chamber as a function of time (μM/s); Vr is the solution volume in the receiver chamber (0.05 mL on the apical side; 0.25 mL on the basolateral side); A is the surface area for the transport, i.e. 0.0804 cm^2 for the area of the monolayer; CO is the initial concentration in the donor chamber (μM).
Compounds are classified Pgp substrates when efflux ratio (Papp BA/Papp AB) is ≥2.

[2] = target: T1, BACE1 (Homo sapiens, UniProt P56817); test: BACE1 binding assay (SPA-based); parameters: biotin (biotinylated form); made in house; host or cells: Freestyle HEK293 cells; details: pH 4.5, 10 nM radioligand
T1 sequence (P56817 46-501): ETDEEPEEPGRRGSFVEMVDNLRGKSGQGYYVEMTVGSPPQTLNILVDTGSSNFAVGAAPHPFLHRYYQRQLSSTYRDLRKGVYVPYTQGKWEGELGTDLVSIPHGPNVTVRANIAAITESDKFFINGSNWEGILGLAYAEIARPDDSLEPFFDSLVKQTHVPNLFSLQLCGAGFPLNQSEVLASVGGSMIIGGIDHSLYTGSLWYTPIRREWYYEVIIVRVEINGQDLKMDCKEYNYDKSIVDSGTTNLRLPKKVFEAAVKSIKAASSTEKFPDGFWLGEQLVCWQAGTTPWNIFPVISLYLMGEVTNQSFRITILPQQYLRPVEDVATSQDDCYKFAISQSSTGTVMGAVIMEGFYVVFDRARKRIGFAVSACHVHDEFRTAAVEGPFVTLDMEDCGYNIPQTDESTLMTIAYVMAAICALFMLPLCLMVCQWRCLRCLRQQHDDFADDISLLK
Method: The binding assay was performed as SPA-based assay using a biotinylated form of human BACE1 recombinantly expressed and subsequently purified from Freestyle HEK293 cells. The binding assay was run in a 50 mM sodium acetate buffer, pH 4.5 containing 50 mM NaCl and 0.03% Tween-20 in white clear bottom 384 plates (Corning #3653). […] The plates were incubated for one hour at room temperature and counted in a Wallac Trilux counter. Total and non-specific binding were determined using buffer and 1 μM (final concentration) of the high affinity BACE1 reference inhibitor (S)-6-[3-chloro-5-(5-prop-1-ynyl-pyridin-3-yl)-thiophen-2-yl]-2-imino-3,6-dimethyl-tetrahydro-pyrimidin-4-one, respectively. For each test compound, a IC50 value (the concentration mediating 50% inhibition of the specific binding of the radioligand) was determined from concentration-response curve and used to calculate the Ki from the equation Ki=IC50/(1+L/Kd), where L and Kd are the final concentration of the radioligand used in the assay and the dissociation constant of the radioligand, respectively. The Kd of the radioligand was determined from saturation binding experiments.

[3] = target: T1, BACE1; test: BACE1 efficacy assay (FRET-based); format: biochemical; parameters: purchased Life Technologies P2985; details: 10 μM test compound
Method: The efficacy assay was performed as a FRET-based assay using a commercially available BACE1 kit (Life Technologies, P2985). 2 μl test compound at 10 μM (final concentration) and 15 μl BACE1 enzyme from the kit (final concentration 3 nM) were preincubated for 15 minutes at room temperature before addition of 15 μl of substrate from the kit (250 nM final concentration) and incubated for additional 90 minutes at room temperature. The assay plate was subsequently read in a Pherastar (Ex540/Em590). The enzyme activity observed in presence of test compound were normalized to the enzyme activity observed in presence of buffer and 10 μM (final concentration) of the high affinity BACE1 reference inhibitor (S)-6-[3-Chloro-5-(5-prop-1-ynyl-pyridin-3-yl)-thiophen-2-yl]-2-imino-3,6-dimethyl-tetrahydropyrimidin-4-one, respectively. The efficacy of the test compounds was evaluated at 10 μM (final concentration) and defined as the percent inhibition of the enzyme activity using the equation % inhibition=100%−normalized enzyme activity in percent.

[4] = Clearance in hepatocytes, human; format: in vitro ADME; details: read-out: CLint, Human (L/h/kg) ± SD (converted)
Source text: (§1) Deuterated compounds were compared to their non-deuterated parent counterparts to determine the impact of deuteration on clearance results

[5] = Clearance in hepatocytes, cyno; format: in vitro ADME; details: cynomolgus monkey, read-out: CLint, Cyno (L/h/kg) ± SD (converted)
Source text: as §1

[6] = Clearance in hepatocytes, dog; format: in vitro ADME; details: read-out: CLint, Dog (L/h/kg) ± SD (converted)
Source text: as §1

[7] = Clearance in hepatocytes, rat; format: in vitro ADME; details: read-out: CLint, Rat (L/h/kg) ± SD (converted)
Source text: as §1

[8] = Clearance in microsomes, cyno; format: in vitro ADME; details: cynomolgus monkey, read-out: CLint, Cyno (L/h/kg) ± SD (converted)
Source text: as §1

[9] = Clearance in microsomes, dog; format: in vitro ADME; details: read-out: CLint, Dog (L/h/kg) ± SD (converted)
Source text: as §1

[10] = Clearance in microsomes, human; format: in vitro ADME; details: read-out: CLint, Human (L/h/kg) ± SD (converted)
Source text: as §1

[11] = Clearance in microsomes, rat; format: in vitro ADME; details: read-out: CLint, Rat (L/h/kg) ± SD (converted)
Source text: as §1

Row | Structure (SMILES) | efflux ratio at 60 min, 0.5 μM [1] | Ki [2] [nM] | inhibition at 10 µM [3] [%] | CLint scaled at 0.1 µM [4] [L/h/kg] | CLint scaled at 0.3 µM [4] [L/h/kg] | CLint scaled at 1 µM [4] [L/h/kg] | CLint scaled at 0.1 µM [5] [L/h/kg] | CLint scaled at 0.3 µM [5] [L/h/kg] | CLint scaled at 1 µM [5] [L/h/kg] | CLint scaled at 0.1 µM [6] [L/h/kg] | CLint scaled at 0.3 µM [6] [L/h/kg] | CLint scaled at 1 µM [6] [L/h/kg] | CLint scaled at 0.1 µM [7] [L/h/kg] | CLint scaled at 0.3 µM [7] [L/h/kg] | CLint scaled at 1 µM [7] [L/h/kg] | CLint scaled at 1 µM [8] [L/h/kg] | CLint scaled at 1 µM [9] [L/h/kg] | CLint scaled at 1 µM [10] [L/h/kg] | CLint scaled at 1 µM [11] [L/h/kg] | further results
1 | [2H]C([2H])([2H])Oc1cnc(C(=O)Nc2ccc(F)c([C@]3(CF)CC[C@@](F)(CF)C(N)=N3)c2)cn1 [Example 4, N-[3-[(2S,5S)-6-amino-5-fluoro-2,5-bis(fluoromethyl)-2,3,4,5-tetrahydropyridin-2-yl]-4-fluoro-phenyl]-5-(methoxy-d3)pyrazine-2-carboxamide] | 0.73 | 14 | 97 | – | – | – | – | – | – | – | – | – | – | – | – | – | – | – | – | –
2 | COc1cnc(C(=O)Nc2ccc(F)c([C@]3(C)CC[C@@](F)(CF)C(N)=N3)c2)cn1 [Compound Z] | – | – | – | 1 | 0.95 | 0.72 | 137 | 135 | 75 | 112 | 101 | 64 | 1.7 | 1.5 | 1 | 34 | 25 | 0.51 | 1.3 | CLint scaled at 0.1 µM ([8]; 0.1 microM): 70 L/h/kg; CLint scaled at 0.3 µM ([8]; 0.3 microM): 61 L/h/kg; CLint scaled at 0.1 µM ([9]; 0.1 microM): 40 L/h/kg; CLint scaled at 0.3 µM ([9]; 0.3 microM): 31 L/h/kg; CLint scaled at 0.1 µM ([10]; 0.1 microM): 1 L/h/kg; CLint scaled at 0.3 µM ([10]; 0.3 microM): 0.75 L/h/kg; CLint scaled at 0.1 µM ([11]; 0.1 microM): 2.7 L/h/kg; CLint scaled at 0.3 µM ([11]; 0.3 microM): 1.8 L/h/kg
3 | [2H]C([2H])([2H])Oc1cnc(C(=O)Nc2cc(F)c(F)c([C@]3(C)CC[C@@](F)(CF)C(N)=N3)c2)cn1 [Example 5, N-[3-[(2S,5S)-6-amino-5-fluoro-5-(fluoromethyl)-2-methyl-2,3,4,5-tetrahydropyridin-2-yl]-4,5-difluoro-phenyl]-5-(methoxy-d3)pyrazine-2-carboxamide] | 0.77 | 9.8 | 100 | – | – | – | – | – | – | – | – | – | – | – | – | – | – | – | – | –
4 | [2H]C([2H])([2H])Oc1cnc(C(=O)Nc2cc(F)c(F)c([C@]3(C)CC[C@](F)(CF)C(N)=N3)c2)cn1 [Example 2, N-[3-[(2S,5R)-6-amino-5-fluoro-5-(fluoromethyl)-2-methyl-2,3,4,5-tetrahydropyridin-2-yl]-4,5-difluoro-phenyl]-5-(methoxy-d3)pyrazine-2-carboxamide] | 0.96 | 84 | 99 | – | – | – | – | – | – | – | – | – | – | – | – | – | – | – | – | –
5 | [2H]C([2H])([2H])Oc1cnc(C(=O)Nc2ccc(F)c([C@]3(CF)CC[C@](F)(CF)C(N)=N3)c2)cn1 [Example 3, N-[3-[(2S,5R)-6-amino-5-fluoro-2,5-bis(fluoromethyl)-2,3,4,5-tetrahydropyridin-2-yl]-4-fluoro-phenyl]-5-(methoxy-d3)pyrazine-2-carboxamide] | 0.85 | 67 | 97 | – | – | – | – | – | – | – | – | – | – | – | – | – | – | – | – | –
6 | [2H]C([2H])([2H])Oc1ccc(C(=O)Nc2ccc(F)c([C@@]3(C(F)F)N=C(N)CCC3(F)F)c2)nc1 [Compound Y] | – | – | – | < 0.1 | < 0.1 | 0.29 | 80 | 32 | 14 | 98 | 84 | 57 | 1.4 | 1 | 2.1 | 12 | 21 | 0.5 | 1 | –
